Results taken from publication PMC6669608, “Evaluation of Oxasqualenoids from the Red Alga Laurencia viridis against Acanthamoeba” (Marine Drugs, 2019).
Where two headings read alike, the source gives them in different places.

Tests used:
[1] = test system: Acanthamoeba castellanii Neff trophozoites; design: method as in PMID 30423882; conditions: previous work; read-out: IC50 against Acanthamoeba castellanii Neff; cited from earlier work
[2] = test system: Acanthamoeba castellanii Neff trophozoites; assay: In vitro activity against Acanthamoeba trophozoites (alamarBlue colorimetric assay); assay type: cell-based, Acanthamoeba castellanii Neff (ATCC 30010); conditions: 96 h, read-out: IC50 against Acanthamoeba castellanii Neff
Protocol: (§1) The antiamoeboid activity of the compounds was evaluated against Acanthamoeba castellanii Neff (ATCC 30010) type strain from the American Type Culture Collection. This strain was axenically incubated in PYG medium (0.75% (w/v) proteose Peptone, 0.75% (w/v) Yeast extract, and 1.5% (w/v) Glucose) supplemented with 10 µg/mL gentamicin (Sigma-Aldrich, Madrid, Spain). As for the cytotoxicity assays, murine macrophages J774A.1 (ATCC TIB-67) were used, cultivated in DMEM medium (Dulbecco’s modified eagle medium, Gibco Life Technologies, California, USA) with 10% supplement of fetal bovine serum (FBS) and 10 µg/mL gentamicin at 37 °C in a 5% CO2 incubator.
The in vitro activities of the different compounds of Laurencia were evaluated using a previously developed colorimetric assay based on the alamarBlue™ Cell Viability Reagent assay (Life Technologies, Barcelona, Spain). Briefly, 50 µL of 5 × 10⁴ trophozoites/mL were seeded onto a 96-well microtiter plate. After 15 min, the adherence of the cells to the plate bottom was confirmed by the use of the inverted microscope Leica DMIL (Leica, Wetzlar, Germany). Furthermore, 50 µL of serial dilutions of each compound was added to the 96-well microtiter plate. Finally, alamarBlue™ was placed into each well at 10% of the final volume and incubated at 26 °C with slight agitation. After 96 h, the fluorescence was measured with EnSpire Multimode Plate Reader (Perkin Elmer, Madrid, Spain) at a wavelength of 570/585 nm. The inhibitory concentration to inhibit the growth of 50% of the parasites (IC50) was calculated through nonlinear regression analysis with 95% confidence limits using the software Sigma Plot 12.0 (Systat Software Inc., London, UK). The experiments were performed three times each, allowing for standard deviation.

[3] = Cytotoxicity assay (alamarBlue); assay type: cell-based, murine; design: CC50, toxicity against murine macrophage J774A.1 (unit not given): unit not given beside the values; conditions: mouse, 24 h, 37 °C, read-out: CC50, toxicity against murine macrophage J774.A1
Protocol: as §1
(§2) The cytotoxicity of the tested compounds was determined in vitro with murine macrophages (J774A.1). For this assay, the DMEM culture medium was changed from RPMI without phenol red (Roswell Park Memorial Institute, Thermo Fisher Scientific Inc., Waltham, MA, USA) to L-Glutamine supplemented with 10% (v/v) inactivated FBS and with 10 µg/mL gentamicin. In this assay, the macrophages were counted and seeded into a 96-well microtiter plate, adding 50 µL to each well from a stock solution of 2 × 10^5 cells/mL. Cells were then left to adhere for 15 min to the plate bottom and were checked with the inverted microscope Leica DMIL. After that, 50 µL of a serial dilution of the compounds was added to the 96-well microtiter plate. Finally, alamarBlue™ was added into each well at an amount equal to 10% of the final volume and incubated at 37 °C in the presence of CO2 at 5% for 24 h. After this period of time, as in the in vitro anti-Acanthamoeba assay, the fluorescence was determined with an EnSpire Multimode Plate Reader (PerkinElmer, Inc, Waltham, MA, USA) at a wavelength of 570/585 nm. The cytotoxicity concentration to inhibit the growth of 50% of murine macrophages (CC50) was calculated through nonlinear regression analysis with 95% confidence limits using the software Sigma Plot 12.0 (Systat Software, Inc, San Jose, CA 95110 USA). Experiments were performed three times each, allowing for standard deviation.

[4] = test system: murine macrophages J774A.1; assay: Cytotoxicity assay (alamarBlue); assay type: cell-based; design: CC50, toxicity against murine macrophage J774A.1 (unit not given): unit not given beside the values; conditions: for CC50, toxicity against murine macrophage J774A.1 (unit not given): mouse
Protocol: as §1, §2

[5] = test system: Acanthamoeba castellanii Neff trophozoites; assay: In vitro activity against Acanthamoeba trophozoites (alamarBlue colorimetric assay); assay type: cell-based, Acanthamoeba castellanii Neff (ATCC 30010); conditions: 42.5 µM (25 µg/mL)

Row | Molecule | IC50 ([2]; trophozoites, 26 °C) [µM] | CC50 at 24 h ([3]; J774A.1 murine macrophages) [µM] | CC50 [3] [µM] | other results
1 | 3α-bromojohnstane | – | – | – | IC50 [1]: 41.5 µM
2 | C[C@@H]1[C@H](O)[C@@H](C)/C=C/C=C/C=C/C=C/C=C/C=C/C=C/[C@H](O[C@@H]2O[C@H](C)[C@@H](O)[C@H](N)[C@@H]2O)C[C@@H]2O[C@](O)(C[C@@H](O)C[C@@H](O)[C@H](O)CC[C@@H](O)C[C@@H](O)CC(=O)O[C@H]1C)C[C@H](O)[C@H]2C(=O)O [Amphotericin B, amphotericin B, reference compound] | 39.6 ± 0.56 | > 100 | – | –
3 | [H]/N=C(\N/C(=N/[H])NCCCCCCNC(=N)NC(=N)Nc1ccc(Cl)cc1)Nc1ccc(Cl)cc1 [Chlorhexidine, chlorhexidine, reference compound] | – | 6.64 ± 0.35 | – | –
4 | CC(C)(O)[C@H]1CC[C@](C)([C@@H](O)CC[C@](C)(O)[C@H]2CC[C@H]3O[C@@H]([C@]4(C)CC[C@@H](Br)C(C)(C)O4)CC[C@]3(C)O2)O1 [Compound 2, thyrsiferol] | – | – | – | IC50 [2]: 14 ± 1.57 µM; CC50 at 24 h [3]: > 100 µM; toxicity against murine macrophages (in words) [4]: not toxic against murine macrophages; CC50, toxicity against murine macrophage J774A.1 (unit not given) ([4]; 24 h): < 50
5 | C=C(CC[C@H](O)[C@@]1(C)CC[C@@H](O)C(C)(C)O1)[C@H]1CC[C@H]2O[C@@H]([C@]3(C)CC[C@@H](Br)C(C)(C)O3)CC[C@]2(C)O1 [Compound 3, iubol] | 5.3 ± 0.87 | – | 7.72 ± 0.22 | inhibitory effect on the growth of A. castellanii trophozoites (microscopy) [5]: many of the treated cells were dead
6 | C=C(CC[C@H](O)[C@@]1(C)CC[C@](O)(C(C)(C)O)O1)[C@H]1CC[C@H]2O[C@@H]([C@]3(C)CC[C@@H](Br)C(C)(C)O3)CC[C@]2(C)O1 [Compound 4, 22-hydroxydehydrothyrsiferol] | 17 ± 4.57 | – | > 100 | toxicity against murine macrophages (in words) [4]: not toxic against murine macrophages; CC50, toxicity against murine macrophage J774A.1 (unit not given) [4]: < 50
7 | C=C(C)[C@@H]1CC[C@@](C)([C@H]2CC[C@]3(C)O[C@@H](C(=C)CC[C@H](O)[C@@]4(C)CC[C@H](C(C)(C)O)O4)CC[C@H]3O2)O1 [Compound 5, 1,2-dehydropseudodehydrothyrsiferol] | 105 ± 1.72 | > 100 | – | –
8 | CC(C)(O)[C@H]1CC[C@](C)([C@@H]2CC[C@@](C)([C@H]3CC[C@H]4O[C@@H]([C@]5(C)CC[C@@H](Br)C(C)(C)O5)CC[C@]4(C)O3)O2)O1 [Compound 6, saiyacenol A] | 55.4 ± 6.56 | – | 59.9 ± 8.5 | –
9 | CC(C)(O)[C@H]1CC[C@](C)([C@@H]2CC[C@](C)([C@H]3CC[C@H]4O[C@@H]([C@]5(C)CC[C@@H](Br)C(C)(C)O5)CC[C@]4(C)O3)O2)O1 [Compound 7, saiyacenol B] | 77.9 ± 3.3 | – | > 100 | –
10 | CC(C)(O)[C@H]1CC[C@](C)([C@@H]2CC[C@@](CO)([C@H]3CC[C@H]4O[C@@H]([C@]5(C)CC[C@@H](Br)C(C)(C)O5)CC[C@]4(C)O3)O2)O1 [Compound 8, 28-hydroxysaiyacenol A] | 66.2 ± 3.81 | – | > 100 | –
11 | CC(C)(O)[C@H]1CC[C@](C)([C@@H]2CC[C@](CO)([C@H]3CC[C@H]4O[C@@H]([C@]5(C)CC[C@@H](Br)C(C)(C)O5)CC[C@]4(C)O3)O2)O1 [Compound 9, 28-hydroxysaiyacenol B] | 59.9 ± 10.1 | – | > 100 | –
12 | CC(C)(O)C1CCC(C)(C2CCC(C)(C3CCC(C(C)(O)CCC4OC(C)(C)C5CCC4(C)O5)O3)O2)O1 (centres unmarked) [Compound 10, nivariol A] | 102 ± 9.57 | > 100 | – | –
13 | CC1(C)O[C@](C)([C@H]2CC[C@]3(C)OC(=O)CC[C@H]3O2)CC[C@H]1Br [Compound 11, adejene B] | 48.3 ± 0.55 | > 100 | – | –
14 | C=C(CC[C@H](OS(=O)(=O)O)[C@@]1(C)CC[C@H](C(C)(C)O)O1)[C@H]1CC[C@H]2O[C@@H]([C@]3(C)CC[C@@H](Br)C(C)(C)O3)CC[C@]2(C)O1 [Compound 12, 18-sulphatedehydrothyrsiferol] | 43.18 ± 0.14 | – | > 100 | –
15 | C=C(CCC(=O)[C@@]1(C)CC[C@H](C(C)(C)O)O1)[C@H]1CC[C@H]2O[C@@H]([C@]3(C)CC[C@@H](Br)C(C)(C)O3)CC[C@]2(C)O1 [Compound 13, 18-ketodehydrothyrsiferol] | 29.1 ± 2.84 | – | 23.4 ± 1.76 | –
16 | CC(C)(O)[C@H]1CC[C@](C)([C@@H]2CC[C@@](CI)([C@H]3CC[C@H]4O[C@@H]([C@]5(C)CC[C@@H](Br)C(C)(C)O5)CC[C@]4(C)O3)O2)O1 [Compound 14, 28-iodosaiyacenol A] | 50.5 ± 3.05 | – | 29.45 ± 0.2 | –
17 | CC(C)(O)[C@H]1CC[C@](C)([C@@H]2CC[C@](CI)([C@H]3CC[C@H]4O[C@@H]([C@]5(C)CC[C@@H](Br)C(C)(C)O5)CC[C@]4(C)O3)O2)O1 [Compound 15, 28-iodosaiyacenol B] | 54.3 ± 6.56 | – | > 100 | –
18 | CC(C)(O)[C@H]1CC[C@](C)([C@@H](O)CCC(O)(CO)[C@H]2CC[C@H]3O[C@@H]([C@]4(C)CC[C@@H](Br)C(C)(C)O4)CC[C@]3(C)O2)O1 (some centres unmarked) [Compound 16, 28-hydroxythyrsiferol] | 104 ± 8.42 | – | > 100 | –
19 | C[C@@H](c1ncncc1F)[C@](O)(Cn1cncn1)c1ccc(F)cc1F [Voriconazole, voriconazole, reference compound] | 0.94 ± 0.29 | 2.64 ± 0.27 | – | –
